Test results as given in PMC6925260 (Nature Communications, 2019).
Where a chain is given by its changes, count along the chain named. Like-named read-outs stand apart in the source and are kept apart here.

Experiments:
[1] = target: T1, PPARγ LBD (wt) / SMRT CoRNR box peptide (Homo sapiens, UniProt P37231); experiment: Fluorescence anisotropy, SMRT peptide to wt PPARγ LBD (alone or ligand bound); assay type: binding
T1 construct: 6× His tag with TEV recognition site (N, cleaved yes); made in house; host or cells: E. coli BL21 (DE3) gold
T1 sequence (P37231 230-505): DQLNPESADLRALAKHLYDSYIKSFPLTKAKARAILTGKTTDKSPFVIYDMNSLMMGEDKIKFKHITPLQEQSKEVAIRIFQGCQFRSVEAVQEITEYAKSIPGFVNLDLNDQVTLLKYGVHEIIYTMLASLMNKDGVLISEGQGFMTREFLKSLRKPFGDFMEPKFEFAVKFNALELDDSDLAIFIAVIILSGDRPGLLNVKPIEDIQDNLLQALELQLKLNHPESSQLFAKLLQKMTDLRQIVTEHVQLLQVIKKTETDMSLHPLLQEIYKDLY
Procedure: (§1) These samples were then plated as usual.

[2] = target: T2, PPARγC313A,Q322C-BTFA LBD / MED1 peptide (Homo sapiens, UniProt P37231, C313A/Q322C); experiment: Fluorescence anisotropy, MED1 peptide to PPARγC313A,Q322C-BTFA LBD; assay type: binding; conditions: Supp. Table 2
T2 construct: 6× His tag with TEV recognition site (N, cleaved yes); made in house; host or cells: E. coli BL21 (DE3) gold
Procedure: as §1

[3] = target: T3, K329A PPARγ LBD / NCoR peptide (Homo sapiens, UniProt P37231, K329A); experiment: Fluorescence anisotropy, NCoR peptide to K329A PPARγ LBD; assay type: binding; conditions: read-out: NCoR dissociation constant average, K329A; Supp. Fig. 11
T3 construct: 6× His tag with TEV recognition site (N, cleaved yes); made in house; host or cells: E. coli BL21 (DE3) gold
Procedure: as §1

[4] = target: PPARγ LBD, deletion of helix 12 / NCoR peptide; experiment: Fluorescence anisotropy, NCoR peptide to helix 12 deleted (DH12) PPARγ LBD; assay type: binding; conditions: read-out: NCoR dissociation constant average, DH12; Supp. Fig. 11
Procedure: as §1

[5] = target: T4, N340A PPARγ LBD / SMRT peptide (Homo sapiens, UniProt P37231, N340A); experiment: Fluorescence anisotropy, SMRT peptide to N340A PPARγ LBD; assay type: binding
T4 construct: 6× His tag with TEV recognition site (N, cleaved yes); made in house; host or cells: E. coli BL21 (DE3) gold
T4 sequence (P37231 230-505 N340A): T1 sequence (P37231 230-505) with N111A
Procedure: as §1

wt PPARg LBD = experiment: Supplementary Figure 11: fluorescence anisotropy dissociation constants, wt PPARγ LBD (peptide not given); assay type: binding
K347A PPARg LBD = experiment: Supplementary Figure 11: fluorescence anisotropy dissociation constants, K347A (peptide not given); assay type: binding
K329A PPARg LBD = experiment: Supplementary Figure 11: fluorescence anisotropy dissociation constants, K329A (peptide not given)
[6] = data set 2 28 18 FP inverse agonism, read-out: dissociation constant
[7] = data set FP K329A K347A 3 20 18, read-out: dissociation constant

O=C(Nc1ccccc1)c1cc([N+](=O)[O-])ccc1Cl [GW9662]
Kd ([1]; Supp. Fig. 12, read-out: SMRT dissociation constant average, wt): 0.634 µM | SMRT Kd mean difference ±SE, Apo vs ligand ([1]; Supp. Table 4, wt, 9 df): 923 ±178 | Kd ([1]; run SMRT FP 4 5 18, read-out: SMRT dissociation constant, WT): 0.445 µM | Kd ([1]; run SMRT FP 4 6 18, read-out: SMRT dissociation constant, WT): 0.482 µM | Kd ([1]; run SMRT FP 4 10 18, read-out: SMRT dissociation constant, WT): 0.976 µM | effect on affinity/recruitment of SMRT CoRNR peptide ([1]; versus apo): increase affinity | MED1 fold change (labeled/wt), PPARγC313A,Q322C-BTFA [2]: 2.3 | Kd ([2]; read-out: MED1 Kd, PPARγC313A,Q322C-BTFA, covalent ligands T0070907, GW9662 expected to be apo-like): 9.75 µM | Kd [3]: 1.82 µM | Kd [4]: 0.093 µM | SMRT Kd, wt vs N340A mean difference ± SE ([5]; Supp. Fig. 12): -323 ±631 | Kd ([5]; Supp. Fig. 12, read-out: SMRT dissociation constant average, N340A): 0.957 µM | Kd ([5]; run SMRT FP 4 5 18, read-out: SMRT dissociation constant, N340A): 0.855 µM | Kd ([5]; run SMRT FP 4 6 18, read-out: SMRT dissociation constant, N340A): 1.21 µM | Kd ([5]; run SMRT FP 4 10 18, read-out: SMRT dissociation constant, N340A): 0.811 µM | Kd (wt PPARg LBD; average of the listed data sets, read-out: dissociation constant, Average wt values): 0.255 µM | Kd (wt PPARg LBD; [6]): 0.242 µM | Kd (wt PPARg LBD; data set FP 3 15 18 Inverse agonism part 2, read-out: dissociation constant): 0.269 µM | Kd (wt PPARg LBD; [7]): 0.254 µM | Kd (K347A PPARg LBD; [6]): 0.692 µM | Kd (K347A PPARg LBD; [7]): 0.488 µM | Kd mutant/Kd wt (K329A PPARg LBD; ratio of averages): 7.158 | Kd (K329A PPARg LBD; read-out: dissociation constant, Average K329A values, average of the listed data sets): 1.82 µM | Kd (K329A PPARg LBD; read-out: dissociation constant, data set FP 3 15 18 Inverse agonism part 2): 1.8 µM | Kd (K329A PPARg LBD; read-out: dissociation constant, data set FP K329A K347A 3 20 18): 1.85 µM
